Laboratory results as given in patent publication US6335013B1, “Methods and materials relating to CD39-like polypeptides” (Hyseq, Inc., priority 1999, dated 2002).
Numbering of substitutions follows the chain as printed. Each block holds one molecule with its values, some of them ahead of it.

Tests used:
CD39-L4 [1] = target: T1, CD39-L4 (Homo sapiens, UniProt O75356); test: Substrate (nucleotide) specificity of CD39-L4, inorganic phosphate release; assay type: biochemical; conditions: nucleotide 1 mM; for % OF CONTROL, substrate specificity of CD39-L4: relative to ADP, buffer A with 1 mM EGTA, 2 mM CaCl2 and MgCl2
T1 construct: to allow purification of the secreted mature form of the protein; made in house; host or cells: COS-7 cells, transient transfection (pcDNA3.1); protein captured from the medium on Nickel-NTA resin
T1 sequence (O75356 25-428): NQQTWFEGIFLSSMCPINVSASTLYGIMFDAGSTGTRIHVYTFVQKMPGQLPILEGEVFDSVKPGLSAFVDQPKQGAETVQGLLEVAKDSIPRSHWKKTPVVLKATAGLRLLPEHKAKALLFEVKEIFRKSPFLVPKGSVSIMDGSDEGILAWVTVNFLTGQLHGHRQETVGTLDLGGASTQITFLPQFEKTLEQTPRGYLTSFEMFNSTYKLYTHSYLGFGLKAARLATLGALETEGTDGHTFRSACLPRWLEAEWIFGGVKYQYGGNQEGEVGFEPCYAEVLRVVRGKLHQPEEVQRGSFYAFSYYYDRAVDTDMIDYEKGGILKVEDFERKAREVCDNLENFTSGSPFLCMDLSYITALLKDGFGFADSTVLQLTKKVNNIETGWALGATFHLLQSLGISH

CD39-L2 [2] = test: Substrate (nucleotide) specificity of CD39-L2, inorganic phosphate release; assay type: biochemical, human; conditions: for % OF CONTROL, substrate specificity of CD39-L2: relative to ADP, nucleotide 1 mM, buffer A with 1 mM EGTA, 3 mM CaCl2 and 3 mM MgCl2, 37° C., 30 min; for enzymatic activity relative to ADP hydrolysis: assays repeated with 15 mM ADP and 15 mM CaCl2
CD39-L4 [3] = target: T1, CD39-L4; test: Inhibition of CD39-L4 ADPase activity by ATPase/phosphatase inhibitors and chelators; assay type: biochemical; conditions: concentrations as in Table 1
CD39-L2 [4] = test: Inhibition of CD39-L2 ADPase activity by ATPase/phosphatase inhibitors and chelators; assay type: biochemical, human; conditions: concentrations as in Table 3
[5] = target: the molecule itself; test: Western blot of SDS-PAGE, self-association (dimer)
[6] = ADPase activity of CD39-L2 from transfected COS-7 cells, stimulation by divalent cations and Ca2+ titration; assay type: biochemical
[7] = Kinetic characteristics of CD39-L2 ADP hydrolysis; assay type: biochemical
[8] = ADPase activity of CD39-L4 forms (insect-expressed, dimer, deglycosylated); assay type: biochemical
[9] = ADPase and ATPase activity of CD39L4 wild type and ACR mutants, inorganic phosphate released; assay type: biochemical
[10] = 15 mM CaCl2, ADP 0.75-18 mM, 15 min, 37° C.

Molecule: Nc1ncnc2c1ncn2[C@@H]1O[C@H](COP(=O)(O)OP(=O)(O)O)[C@@H](O)[C@H]1O [ADP, Adenosine diphosphate]
rate of ADP hydrolysis by CD39-L4 relative to ATP (CD39-L4 [1]): approximately twenty-fold higher than ATP
% OF CONTROL, substrate specificity of CD39-L4 (CD39-L4 [1]): 100 ± 15%
% OF CONTROL, substrate specificity of CD39-L2 (CD39-L2 [2]): 100 ± 8%

Molecule: Nc1ncnc2c1ncn2[C@@H]1O[C@H](COP(=O)(O)OP(=O)(O)OP(=O)(O)O)[C@@H](O)[C@H]1O [ATP, Adenosine triphosphate]
hydrolysis of the nucleotide by CD39-L4, in words (CD39-L4 [1]): poorest substrate
% OF CONTROL, substrate specificity of CD39-L4 (CD39-L4 [1]): 5 ± 1%
% OF CONTROL, substrate specificity of CD39-L2 (CD39-L2 [2]): 16 ± 2%

Molecule: Nc1ncnc2c1ncn2[C@@H]1O[C@H](COP(=O)(O)OP(=O)(O)OP(=O)(O)OP(=O)(O)OP(=O)(O)OC[C@H]2O[C@@H](n3cnc4c(N)ncnc43)[C@H](O)[C@@H]2O)[C@@H](O)[C@H]1O [Ap5A]
inhibition of Ca2+ and Mg2+ stimulated CD39-L4 ADPase activity, in words (CD39-L4 [3]): did not inhibit activity
inhibition of CD39-L2 ADPase activity, in words (CD39-L2 [4]): did not inhibit activity

Molecule: [N-]=[N+]=[N-] [N3^−]
inhibition of Ca2+ and Mg2+ stimulated CD39-L4 ADPase activity, in words (CD39-L4 [3]): did not significantly inhibit
inhibition of CD39-L2 ADPase activity, in words (CD39-L2 [4]): not inhibited

Molecule: C[C@@H]1O[C@@H](O[C@H]2C[C@@H](O)[C@]3(CO)[C@H]4[C@H](O)C[C@]5(C)[C@@H](C6=CC(=O)OC6)CC[C@]5(O)[C@@H]4CC[C@]3(O)C2)[C@H](O)[C@H](O)[C@H]1O [Ouabain]
inhibition of Ca2+ and Mg2+ stimulated CD39-L4 ADPase activity, in words (CD39-L4 [3]): did not significantly inhibit
inhibition of CD39-L2 ADPase activity, in words (CD39-L2 [4]): not inhibited

B1: CD39L4 Cys39 to Ser mutant with a myc epitope and a 6 His tag at the C-terminus (enzyme, not shown: small tags and cut ends)
chain: HRNQQTWFEGIFLSSMSPINVSASTLYGIMFDAGSTGTRIHVYTFVQKMPGQLPILEGEVFDSVKPGLSAFVDQPKQGAETVQGLLEVAKDSIPRSHWKKTPVVLKATAGLRLLPEHKAKALLFEVKEIFRKSPFLVPKGSVSIMDGSDEGILAWVTVNFLTGQLHGHRQETVGTLDLGGASTQITFLPQFEKTLEQTPRGYLTSFEMFNSTYKLYTHSYLGFGLKAARLATLGALETEGTDGHTFRSACLPRWLEAEWIFGGVKYQYGGNQEGEVGFEPCYAEVLRVVRGKLHQPEEVQRGSFYAFSYYYDRAVDTDMIDYEKGGILKVEDFERKAREVCDNLENFTSGSPFLCMDLSYITALLKDGFGFADSTVLQLTKKVNNIETGWALGATFHLLQSLGISH
notes: also called Ser39 mutant; cys-mutant CD39L4
binding result [5]: no binding

B2: CD39L4 Cys39 to Ala mutant with a myc epitope and a 6 His tag at the C-terminus (enzyme, not shown: small tags and cut ends)
chain: B1 chain with S17A
notes: also called Ala39 mutant; cys-mutant CD39L4
binding result [5]: no binding

B3: CD39-L2myc-His (protein)
chain: MKKGIRYETSRKTSYIFQQPQHGPWQTRMRKISNHGSLRVAKVAYPLGLCVGVFIYVAYIKWHRATATQAFFSITRAAPGARWGQQAHSPLGTAADGHEVFYGIMFDAGSTGTRVHVFQFTRPPRETPTLTHETFKAVKPGLSAYADDVEKSAQGIRELLDVAKQDIPFDFWKATPLVLKATAGLRLLPGEKAQKLLQKVKEVFKASPFLVGDDCVSIMNGTDEGVSAWITINFLTGSLKTPGGSSVGMLDLGGGSTQIAFLPRVEGTLQASPPGYLTALRMFNRTYKLYSYSYLGLGLMSARLAILGGVEGQPAKDGKELVSPCLSPSFKGEWEHAEVTYRVSGQKAAASLHELCAARVSEVLQNRVHRTEEVKHVDFYAFSYYYDLAAGVGLIDAEKGGSLVVGDFEIAAKYVCRTLETQPQSSPFSCMDLTYVSLLLQEFGFPRSKVLKLTRKIDNVETSWALGAIFHYIDSLNRQKSPAS
stimulation of ADPase activity by Ca2+ ([6]; 15 mM ADP, CaCl2 added to 15 mM): 17 fold
stimulation of ADPase activity by Mg2+ ([6]; 15 mM ADP, MgCl2 added to 15 mM): 8 fold
fold increase in ADPase activity over cells transfected with vector alone ([6]; CD39-L2myc-His from COS-7 medium on Nickel-NTA resin, 1 mM ADP, no added cation): 8.7 fold
further fold increase in ADPase activity when Ca2+ and Mg2+ added ([6]; Ca2+ and Mg2+ added, 1 mM ADP): 2-3 fold
effect of high Ca2+ concentration on ADPase activity ([6]; CaCl2 2-15 mM, low substrate concentration, 37° C., 20 min): no inhibitory effect
K (Hill's Equation) [7, 10]: 364.5
cooperativity, n (Hill's Equation) [7, 10]: 2.48
Vmax of ADP hydrolysis ([7]; 15 mM CaCl2, ADP 0.75-18 mM, 15 min, 37° C., 3.5 ng protein per reaction): 1028 pmol/min
substrate at half-maximal velocity [S]0.5 ([7]; [S]0.5=K^1/n): 10.6 mM

B4: CD39L4 dimer: dimeric form of secreted CD39L4 (protein, UniProt O75356 25-428, looked up)
Nucleoside diphosphate …: T1 sequence (O75356 25-428)
modifications: dimer
enzymatic (ADPase) activity of the dimer ([8]; monomer and dimer enriched sucrose density gradient fractions): does not possess any significant level of enzymatic activity

B5: deglycosylated CD39-L4: CD39-L4 from tunicamycin treated COS-7 cells (protein, UniProt O75356 25-428, looked up)
Nucleoside diphosphate …: T1 sequence (O75356 25-428)
modifications: deglycosylated (tunicamycin)
notes: CD39-L4 from tunicamycin treated COS-7 cells
ADPase activity of deglycosylated protein ([8]; from tunicamycin (5 μg/ml) treated COS-7 cells): comparable to an equal amount of the glycosylated protein

B6: ACR III: variant CD39-L4 with substitutions D168→T, S170→Q and L175→F (protein)
chain: MATSWGTVFFMLVVSCVCSAVSHRNQQTWFEGIFLSSMCPINVSASTLYGIMFDAGSTGTRIHVYTFVQKMPGQLPILEGEVFDSVKPGLSAFVDQPKQGAETVQGLLEVAKDSIPRSHWKKTPVVLKATAGLRLLPEHKAKALLFEVKEIFRKSPFLVPKGSVSIMTGQDEGIFAWVTVNFLTGQLHGHRQETVGTLDLGGASTQITFLPQFEKTLEQTPRGYLTSFEMFNSTYKLYTHSYLGFGLKAARLATLGALETEGTDGHTFRSACLPRWLEAEWIFGGVKYQYGGNQEGEVGFEPCYAEVLRVVRGKLHQPEEVQRGSFYAFSYYYDRAVDTDMIDYEKGGILKVEDFERKAREVCDNLENFTSGSPFLCMDLSYITALLKDGFGFADSTVLQLTKKVNNIETGWALGATFHLLQSLGISH
hydrolysis of ADP, in words ([9]; ADP as substrate): hydrolyze ADP
hydrolysis of ATP, in words ([9]; ATP as substrate): neither the CD39L4 nor the CD39L4 mutant, ACR III, catalyzed hydrolysis
ADPase activity compared to wild type CD39-L4 ([9]; protein from COS-7 medium, 1 mM ADP, increase due to amount of protein, not specific activity): six-fold over wild type

The next lines start with results.

% OF CONTROL, substrate specificity of CD39-L4 (CD39-L4 [1]): 268 ± 11%
Molecule: Nc1ccn([C@@H]2O[C@H](COP(=O)(O)OP(=O)(O)O)[C@@H](O)[C@H]2O)c(=O)n1 [CDP]
enzymatic activity relative to ADP hydrolysis (CD39-L2 [2]): 73%
% OF CONTROL, substrate specificity of CD39-L2 (CD39-L2 [2]): 282 ± 18%

% OF CONTROL, substrate specificity of CD39-L4 (CD39-L4 [1]): 26 ± 2%
Molecule: Nc1ccn([C@@H]2O[C@H](COP(=O)(O)OP(=O)(O)OP(=O)(O)O)[C@@H](O)[C@H]2O)c(=O)n1 [CTP]
% OF CONTROL, substrate specificity of CD39-L2 (CD39-L2 [2]): 44 ± 4%

inhibition of Ca2+ and Mg2+ stimulated CD39-L4 ADPase activity, in words (CD39-L4 [3]): significantly inhibited activity
Molecule: O=C(O)CN(CCN(CC(=O)O)CC(=O)O)CC(=O)O [EDTA]
inhibition of CD39-L2 ADPase activity, in words (CD39-L2 [4]): inhibited CD39-L2 activity

inhibition of Ca2+ and Mg2+ stimulated CD39-L4 ADPase activity, in words (CD39-L4 [3]): significantly inhibited activity
Molecule: O=C(O)CN(CCOCCOCCN(CC(=O)O)CC(=O)O)CC(=O)O [EGTA]
inhibition of CD39-L2 ADPase activity, in words (CD39-L2 [4]): inhibited CD39-L2 activity

inhibition of Ca2+ and Mg2+ stimulated CD39-L4 ADPase activity, in words (CD39-L4 [3]): did not inhibit activity
Molecule: F [F^−]
inhibition of CD39-L2 ADPase activity, in words (CD39-L2 [4]): partially inhibited activity

hydrolysis of the nucleotide by CD39-L4, in words (CD39-L4 [1]): very efficiently hydrolyzed
% OF CONTROL, substrate specificity of CD39-L4 (CD39-L4 [1]): 334 ± 38%
Molecule: Nc1nc2c(ncn2[C@@H]2O[C@H](COP(=O)(O)OP(=O)(O)O)[C@@H](O)[C@H]2O)c(=O)[nH]1 [GDP]
enzymatic activity relative to ADP hydrolysis (CD39-L2 [2]): 280%
% OF CONTROL, substrate specificity of CD39-L2 (CD39-L2 [2]): 338 ± 52%

% OF CONTROL, substrate specificity of CD39-L4 (CD39-L4 [1]): 34 ± 1%
Molecule: Nc1nc2c(ncn2[C@@H]2O[C@H](COP(=O)(O)OP(=O)(O)OP(=O)(O)O)[C@@H](O)[C@H]2O)c(=O)[nH]1 [GTP]
% OF CONTROL, substrate specificity of CD39-L2 (CD39-L2 [2]): 39 ± 1%

inhibition of Ca2+ and Mg2+ stimulated CD39-L4 ADPase activity, in words (CD39-L4 [3]): did not significantly inhibit
Molecule: CCN1C(=O)C=CC1=O [NEM]
inhibition of CD39-L2 ADPase activity, in words (CD39-L2 [4]): not inhibited

hydrolysis of the nucleotide by CD39-L4, in words (CD39-L4 [1]): very efficiently hydrolyzed
% OF CONTROL, substrate specificity of CD39-L4 (CD39-L4 [1]): 408 ± 14%
Molecule: O=c1ccn([C@@H]2O[C@H](COP(=O)(O)OP(=O)(O)O)[C@@H](O)[C@H]2O)c(=O)[nH]1 [UDP]
enzymatic activity relative to ADP hydrolysis (CD39-L2 [2]): 228%
% OF CONTROL, substrate specificity of CD39-L2 (CD39-L2 [2]): 303 ± 5%

% OF CONTROL, substrate specificity of CD39-L4 (CD39-L4 [1]): 12 ± 4%
Molecule: O=c1ccn([C@@H]2O[C@H](COP(=O)(O)OP(=O)(O)OP(=O)(O)O)[C@@H](O)[C@H]2O)c(=O)[nH]1 [UTP]
% OF CONTROL, substrate specificity of CD39-L2 (CD39-L2 [2]): 13 ± 1%
